Non-standard residues stand in square brackets, D forms with d. Residues, ends and D or L forms follow the SMILES beside them. ξ: configuration not given here. *: point of attachment. ξPhe(4-F) = NC(Cc1ccc(F)cc1)C(=O)O; Boc = CC(C)(C)OC(=O)*
| Compound | melting point [°C] |
| --- | --- |
| CC12CC=C3c4ccc(O)cc4CCC3(C=C(F)F)C1CCC2O (stereo unspecified) | 103 to 106 |
| COc1cc(N(C)C)ccc1-c1nc2c(N[C@H]3[C@@H](C(N)=O)[C@@H]4C=C[C@H]3C4)ccnc2[nH]1 | 185 to 190 |
| CCNC(=O)C(Cc1ccc(F)cc1)NC(=O)CNC(=O)OC(C)(C)C (stereo not drawn) (Boc-Gly-[ξPhe(4-F)]-NHEt) | 181 to 182 |
| OC(Cn1cncn1)(c1ccc(Cl)cc1)C(F)(F)F (stereo unspecified) | 117 to 118 |
| CCCC1=C(C#N)C(c2ccccc2[N+](=O)[O-])c2c[nH]nc2N1 (stereo unspecified) | 216 |
| N#Cc1cccc2c1NC(=O)C21COc2cc3c(cc21)OCO3 (stereo unspecified) | 205 to 207 |
| CCCOc1ccc(CCNC(=O)C(F)(F)F)cc1S(=O)(=O)N=CN(C)C | 142 |
| CN1N=CC(=CNCc2ccc(F)cc2F)C1=O | 181 to 182 |
| O=C(CCl)c1ccc(OCc2nnn[nH]2)cc1 | 194 to 196 |
| O=C1C2CCCCC2C(=O)N1CCS (stereo unspecified) | 79 to 80 |
| COc1ccc(C=C(C#N)C#N)cc1OC | 108 |
| C=CS(=O)(=O)C=CSc1ccc(C(C)(C)C)cc1 | 62 to 64 |
| CC(C)(C)OC(=O)N1CCC(c2ccc3oc(-c4ccc(C(F)(F)F)cc4)nc3c2)CC1 | 161 to 164 |
| Cc1cc(C)cc(Oc2[nH]c(=O)[nH]c(=O)c2C(C)C)c1 | 91 to 92 |
| CCN(CC)S(=O)(=O)c1ccc2c(c1)-c1c(nc(C)[nH]c1=O)CC2 | 249 to 251 |
| O=C(O)[C@H]1CCCN1C(=O)Cc1ccc(CC(=O)N2CCC[C@@H]2C(=O)O)cc1 | 210 to 214 |
| CN1CCC(O)(c2csc3ccccc23)CC1 | 150 to 151 |
| CCOP(=O)(CNCc1ccnc(-c2cc(C(C)(C)C)c(O)c(C(C)(C)C)c2)c1)OCC | 66 to 69 |
| Cc1cc(C)c(C(O)c2ccc(C(C)C)cc2)c(O)c1 (stereo unspecified) | 103 to 104 |
| NP(N)(=S)N1CCCC1 | 95 to 99 |
| CC(=O)OCc1cc(O)c2c(c1)C(=O)c1cccc(C(C)=O)c1C2=O | 190 to 191 |

| Compound | melting point [°C] |
| --- | --- |
| Fc1ccc(N2CCC(N3CCN(c4cccc5cccnc45)CC3)CC2)c2ncccc12 | 224 |
| COc1cc2oc(=O)c3c(c2c(OC)c1OC)CCN(CC(C)=O)C3 | 114 to 116 |
| CC(C)c1n[nH]c2c(O)nc(O)nc12 | 295 to 298 |
| CS(=O)(=O)c1ccccc1C(=O)N1CCC(N2CCC(Oc3ccc(Cl)c(Cl)c3)CC2)CC1 | 141 |
| CCNC(=O)Nc1nc2cc(-c3cccnc3)cc(N3CCOCC3)n2n1 | 298 to 300 |
| CC(C)(C)c1cc(C=O)c(O)c(C(F)(F)F)c1 | 56 to 57.5 |
| COc1cc(OC)c(OC(=O)CS(=O)(=O)Nc2c(C(C)C)cccc2C(C)C)c(OC)c1 | 167 to 170 |
| CC(C)C(=O)CCC(C)C1CCC2C3CC=C4CC(O)CCC4(C)C3CCC12C (stereo unspecified) | 135 to 136 |
| CN(N)C(=S)Nc1ccc([N+](=O)[O-])cc1Cl | 164 to 167 |
| NC(=O)c1ccc(F)c2c1C[C@@H](N(CCCc1c[nH]c3c(F)cc(F)cc13)CC1CC1)CO2 | 147 to 151 |
| CNC(=O)C1C(C)(C)C1(C)C | 98 |
| CC(C)(C)OC(=O)Nc1cccc(-c2noc(CCC(=O)O)n2)c1 | 143 to 144 |
| CCCCCCCCCCCCCCCCOc1cc(C(=O)OCC)cc(C(=O)OCC)c1 | 45 |
| CS(=O)(=O)C(Cl)=C(Cl)C#N | 100 |
| CC(=O)OCC(ON1C(C)(C)CC(OC(=O)C(C)(C)C)CC1(C)C)c1ccccc1 (stereo unspecified) | 102 to 103 |
| CC(=O)NC(=O)CSC(C)=O | 140 to 142 |
| CC(=O)OCc1ccc([N+](=O)[O-])cc1 | 77 to 78 |
| COc1ccc2c(Cl)c(C(=O)Cl)sc2c1Cl | 174 to 175 |
| O=C(CCl)c1ccc2cc(O)c(O)cc2c1 | > 320 |
| COc1ccc(C(C)=O)cc1NC(=O)C(C)CCl (stereo unspecified) | 92 to 97 |
| Cc1cc(-c2ccc(C(F)(F)F)cc2)cnc1N | 74 |

| Compound | melting point [°C] |
| --- | --- |
| CCOC(=O)c1cc(OC)c(C(=O)OCC)cc1Br | 61 to 63 |
| CC(=O)[NH+]([O-])C[C@@H]1CN(c2ccc(N3CCN(S(=O)(=O)c4ccccc4C#N)CC3)c(F)c2)C(=O)O1 (stereo partly specified) | 190 to 192 |
| C=C1c2c(C)cccc2NC(=O)N1CC(=O)OCC | 151 to 154 |
| CN1CCC(CC2CN=C(c3cc4cccc(N(C)S(=O)(=O)c5cccs5)c4[nH]3)S2)=N1 (stereo unspecified) | 149 to 150 |
| C=C(C)Cc1cccc(C(=O)O)c1S | 89 to 92 |
| CC(C)(C)c1cc(C=O)cc(Cl)c1O | 123 |
| CCOC(=O)c1cnc2cc(OC)ccc2c1O | > 260 |
| COC(=O)C[C@H](CC(=O)O[Si](C)(C)C(C)(C)C)O[Si](C)(C)C(C)(C)C | 44 to 46 |
| NC(=O)C(N)CC(=O)N[C@@H]1CN2C(=O)N(c3cc(Cl)nc(Cl)c3)C(=O)[C@@]2(Cc2ccc(OC(F)(F)F)cc2)C1 (stereo partly specified) | 108 |
| O=S1CCON=C1c1cccc(F)c1 (stereo unspecified) | 79 |
| Cn1c(COc2ccc(CC3SC(=O)NC3=O)cc2)nc2ccc(Oc3ccc(NC(=S)NC4CCCCC4)cc3)cc21 (stereo unspecified) | 173 to 174 |
| O=C1Nc2ccc(Cl)cc2C2(c3cccs3)OCCN12 (stereo unspecified) | 193 to 194 |
| CCCCc1cnc(-c2cnc(-c3ccc(F)cc3)nc2)nc1 | 196 |
| NC(=O)NC(C(=O)O)c1cccs1 (stereo unspecified) | 183 to 185 |
| C=CCOc1cc(NC(=O)OC(C)(C)C)c([N+](=O)[O-])cc1I | 93 to 95 |
| Cc1ccc(C(=C(C=CC(O)CC(=O)CC(=O)OC(C)(C)C)c2nnnn2C)c2ccc(C)cc2F)c(F)c1 (stereo unspecified) | 55 to 63 |
| O=C1NCc2ccccc2C([N+](=O)[O-])N1 (stereo unspecified) | 93 to 95 |
| Cc1cc2c(c(C)c1NC=O)C(c1ccc(C(C)C)cc1)CO2 (stereo unspecified) | 193 to 196 |
| COC(=O)c1ccc(NS(C)(=O)=O)c(C=NO)c1 | 160 |

Second part, the compound after the results:

| melting point [°C] | Compound |
| --- | --- |
| 161 | O=C(C=Cc1ccc(Oc2ccccc2)cc1)c1ccc(C2CCCCC2)cc1 |
| 220 to 222 | CC1CCCC(C)N1Cc1ccc2cc(NC(=O)c3ccc(-c4ccc(Cl)cc4)cc3)ccc2c1 (stereo unspecified) |
| 288 to 290 | O=C1NC(=O)c2c1c(-c1ccccc1)cc1oc3ccc(O)cc3c21 |
| 118 to 121 | CC(=O)N(CC1CC1)c1cccc(-c2ccc3nnc(C)n3n2)c1 |
| 173 to 175 | Cc1nc(N2CCCC(Cc3ccc(F)cc3)C2=O)sc1C(=O)NCc1cccc(F)c1 (stereo unspecified) |
| 263 to 265 | CC(=O)Nc1nc2c(Oc3cc(-c4ccc(C(F)(F)F)cc4NCc4cncn4C)ncn3)cccc2s1 |
| 98 | O=C1c2ccccc2C(=O)N1OCCBr |
| 155 to 157 | O=C(O)Cc1ccc2c(c1)Cc1ccccc1CO2 |
| 143 to 148 | COC1=C(Br)CO/C1=C\c1cccc2ccccc12 |
| 152 to 154 | Cc1cc(C2CCN(S(=O)(=O)C(C)(C)C(=O)NO)CC2)ccc1-c1cccc(OC[C@@H](O)CO)c1 |
| 207 to 208 | Nc1cc(Br)cc(OCc2ccccc2)c1NC(=O)C1CC1 |
| 185 to 188 | COC(=O)CCc1ccc(OCc2cccc(-c3cccc(CO)c3)c2)cc1 |
| 132 to 133 | O=C(NCCO)c1cccc(-c2cccc3oc(Cc4cccc(C(F)(F)F)c4)nc23)c1 |
| 184 to 185 | O=C(Nc1cccc2c(=O)cc(C(=O)O)oc12)c1ccc2c(c1)CC(CCCc1ccccc1)O2 (stereo unspecified) |
| > 200 | COC(=O)CCNC(=O)c1ccc2c(c1)nc(-c1ccc(C(=N)N)cc1)n2CCC(c1ccccc1)c1ccccc1 |
| 105 to 107 | COC(=O)c1cccc2c1Nc1c(I)cccc1C2 |
| > 300 | O=C1C2=C(c3ccccc3)N(c3ccccc3)C(=O)C2=C(c2ccccc2)N1c1ccccc1 |
| 132 to 133 | CCOc1cccc(CC(=O)O)c1OCCCc1cc(OC(C)C)nn1Cc1ccc(Cl)cc1Cl |
| 174 | CCC(O)(CC(=O)OC(C)(C)C)c1ccn(Cc2cc3cc(OCc4ccccc4)c(F)cc3nc2I)c(=O)c1 (stereo unspecified) |
| 80 to 82 | CSc1nc(SCc2ccccc2)n[nH]1 |

| melting point [°C] | Compound |
| --- | --- |
| 179 to 184 | Cc1cc(Cn2nc(C(F)(F)F)cc2C(F)(F)F)ccc1NC(=O)c1cccc(Cl)c1C(=O)NC(C)(C)C(=O)O |
| 34 to 36 | CC(C)(CO)Cc1ccccc1 |
| 82 to 83 | N#Cc1ccc(OCc2ccc(F)cc2)cc1 |
| 251 | CCN(CC)C1CCN(c2ccc(-c3[nH]nc4c3C(=O)c3c(NC(=O)NN5CCOCC5)cccc3-4)cc2)CC1 |
| 182 to 185 | CSC1C(=O)Nc2cccc(-c3ccccc3)c21 (stereo unspecified) |
| 235 to 237 | O=C(Nc1ccc(F)cc1)OCC1CSC2=C(O1)c1ccccc1C(=O)C2=O (stereo unspecified) |
| 140 to 144 | CC(CC(=O)Nc1cc(Cc2n[nH]c(=O)c3ccccc23)ccc1F)C(=O)O (stereo unspecified) |
| 109 to 112 | CNC(=O)c1ccccc1Nc1nc(Nc2cc3c(cc2OC)CCN(CCOC)CC3)ncc1Cl |
| 228 | O=S1(=O)c2cccc3cccc(c23)N1CCN1CCC(CN2CCc3[nH]c4ccc(F)cc4c3C2)CC1 |
| 242 to 244 | O=C(Nc1ccc(F)cc1)c1ccccc1SSc1ccccc1C(=O)Nc1ccc(F)cc1 |
| 241 | O=c1nc(-c2cccc(OCc3ccccc3)n2)sc2ccccc12 |
| 87 to 90 | CC(C)(C)OC(=O)N[C@@H](Cc1ccccc1)C(=O)C=[N+]=[N-] |
| 181 to 184 | OCC1(c2c[nH]cn2)Cc2ccccc2C1 |
| 179 to 181 | CCOn1cnc2c(N)nc3ccccc3c21 |
| 263 | CS(=O)(=O)c1ccc(-c2oc(C(=O)O)cc(=O)c2Oc2ccc(Cl)cc2)cc1 |
| 256 | COc1cc(C(=O)c2nc(NC(C)=O)c3ccccn23)ccc1[N+](=O)[O-] |
| 227 | COC(=O)C1=C(C)NC(C)=C(c2nc(CS(=O)(=O)Cc3ccccc3)no2)C1c1cccc([N+](=O)[O-])c1 (stereo unspecified) |
| 158 to 161 | O=C(CNCc1ccccc1)Nc1cccc2[nH]ccc12 |
| 236 | CNC(=O)c1ncc2[nH]c3cccc(Oc4ccc(Cl)cc4)c3c2c1COC |
| 173 to 180 | O=C(/C=C/c1ccc(O)cc1)CC(=O)/C=C/c1ccccc1CO |

— a melting point compilation (Tetko et al.; mined from patent text by program, amines drawn as free bases though some values may be those of a salt)
